From patent US11987543B1, “8-(4-bromobenzylideneamino)naphthalene-1,3-disulfonic acid as an antioxidant compound” (KING FAISAL UNIVERSITY, priority 2023, dated 2024)

Test: DPPH radical scavenging antioxidant test
Format: biochemical
Details: for A (absorbance read against a blank at 517 nm) / Inhibition (radical scavenging inhibition): 0.2 mL DPPH (0.75 mM), compound 3 μM in ethanol, 30 min incubation in the dark
Procedure: The antioxidant properties of the 8-(4-bromobenzylideneamino)naphthalene-1,3-disulfonic acid were studied by adding 0.2 mL DPPH (0.75 mM)) to compound 8-(4-bromobenzylideneamino)naphthalene-1,3-disulfonic acid (III) (3 μM) in ethanol. After 30 min of incubation in the dark, the absorbance was read against a blank at 517 nm. Ascorbic acid (vitamin C) was used as standard antioxidants (positive control). A blank sample was prepared by 0.2 ml of DPPH in 3 ml ethanol. A negative control sample was run using ethanol instead of the sample. The radical scavenging inhibition was calculated using the following equation: […]

Structure (SMILES)	A (absorbance read against a blank at 517 nm)	Inhibition (radical scavenging inhibition) (517 nm) [%]	antioxidant potential compared to vitamin C (in words) (DPPH in vitro test, vitamin C as positive control, 517 nm)
O=S(=O)(O)c1cc(S(=O)(=O)O)c2c(/N=C/c3ccc(Br)cc3)cccc2c1 [Product III, 8-(4-bromobenzylideneamino)naphthalene-1,3-disulfonic acid]	0.21	50	high potential as an antioxidant compared to vitamin C
O=C1O[C@H]([C@@H](O)CO)C(O)=C1O [vit c, Ascorbic acid, reference compound]	0.12	74	
